Values of other authors as cited in patent publication US8440668B2, “Beta-amino heterocyclic dipeptidyl peptidase inhibitors for the treatment of type 2 diabetes” (Merck Sharp & Dohme Corp, priority 2001, dated 2013).

How the values were obtained:
rats = settings: Transplantation 63, 1495-1500 (1997)
mouse = settings: cyclophosphamide-induced neutropenia, WO 99/56753
DP-IV = molecular target: T1, DP-IV (Homo sapiens, UniProt P27487)
T1 construct: GRF is rapidly degraded in plasma to GRF[3-44]; from tissue
T1 sequence (P27487 39-766 limits assumed): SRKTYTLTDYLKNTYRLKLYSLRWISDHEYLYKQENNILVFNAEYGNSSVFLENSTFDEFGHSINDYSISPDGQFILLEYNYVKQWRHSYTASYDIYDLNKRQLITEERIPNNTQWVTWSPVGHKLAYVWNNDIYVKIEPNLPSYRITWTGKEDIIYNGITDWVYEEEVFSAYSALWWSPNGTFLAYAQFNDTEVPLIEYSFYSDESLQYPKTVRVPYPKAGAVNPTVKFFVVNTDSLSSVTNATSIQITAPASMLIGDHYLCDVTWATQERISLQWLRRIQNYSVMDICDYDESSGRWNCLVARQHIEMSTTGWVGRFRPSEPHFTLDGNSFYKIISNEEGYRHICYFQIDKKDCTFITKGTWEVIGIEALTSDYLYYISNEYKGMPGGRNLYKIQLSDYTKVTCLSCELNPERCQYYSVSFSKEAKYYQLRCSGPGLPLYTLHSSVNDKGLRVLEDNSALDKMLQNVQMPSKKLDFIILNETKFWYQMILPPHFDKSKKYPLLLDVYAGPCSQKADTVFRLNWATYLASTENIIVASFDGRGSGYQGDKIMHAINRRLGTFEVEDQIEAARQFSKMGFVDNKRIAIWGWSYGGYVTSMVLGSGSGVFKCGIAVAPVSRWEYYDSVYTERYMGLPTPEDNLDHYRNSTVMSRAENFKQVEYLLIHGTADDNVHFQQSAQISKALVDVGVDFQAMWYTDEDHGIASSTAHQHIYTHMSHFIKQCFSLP

Molecule: CC(C)N1CCC(c2ccccc2)(c2ccccc2)CC1 [Prodipine, Pro-Pro-diphenyl-phosphonate]
- cardiac allograft survival (rats): double cardiac allograft survival in rats from day 7 to day 14

Molecule: CC(C)[C@H](N)C(=O)N1CCC[C@H]1B(O)O [Val-Boro-Pro]
- hematopoiesis (mouse): stimulated hematopoiesis

Molecule: diprotin A
- degradation of GRF in plasma to GRF[3-44] (DP-IV): prevented
